Data published in paper PMC11532403 (Signal Transduction and Targeted Therapy, 2024).
Like-named read-outs stand apart in the source and are kept apart here.

What was measured:
[1] = system: Chinese hamster ovary cells; experiment: In vitro chromosome aberration test; type: cell-based
[2] = Liver microsome metabolic stability; type: in vitro ADME; conditions: 1 μM
Description: The production of major metabolites in human liver microsomes is closer to that in rats or dogs than in mice or monkeys. The amounts of major metabolites produced in human liver microsomes was closer to the amount produced in […]. […] In addition to the same eight monophasic metabolites as in the in vitro study, five di-phasic metabolites, M6, M7, M8, M9 and M10, were detected in rat bile, but the peak areas of the di-phasic metabolites were much smaller than those of the monophasic metabolites.

CYP3A4 = experiment: CYP induction in hepatocytes; type: in vitro ADME, human; conditions: 1, 5, 50 μM, three donors
hERG potassium channel = hERG potassium channel (Homo sapiens, UniProt Q12809); experiment: hERG whole-cell patch clamp; type: cell-based; conditions: ± 368.5 nM, read-out: hERG current IC50
hERG potassium channel, sequence (Q12809 whole entry): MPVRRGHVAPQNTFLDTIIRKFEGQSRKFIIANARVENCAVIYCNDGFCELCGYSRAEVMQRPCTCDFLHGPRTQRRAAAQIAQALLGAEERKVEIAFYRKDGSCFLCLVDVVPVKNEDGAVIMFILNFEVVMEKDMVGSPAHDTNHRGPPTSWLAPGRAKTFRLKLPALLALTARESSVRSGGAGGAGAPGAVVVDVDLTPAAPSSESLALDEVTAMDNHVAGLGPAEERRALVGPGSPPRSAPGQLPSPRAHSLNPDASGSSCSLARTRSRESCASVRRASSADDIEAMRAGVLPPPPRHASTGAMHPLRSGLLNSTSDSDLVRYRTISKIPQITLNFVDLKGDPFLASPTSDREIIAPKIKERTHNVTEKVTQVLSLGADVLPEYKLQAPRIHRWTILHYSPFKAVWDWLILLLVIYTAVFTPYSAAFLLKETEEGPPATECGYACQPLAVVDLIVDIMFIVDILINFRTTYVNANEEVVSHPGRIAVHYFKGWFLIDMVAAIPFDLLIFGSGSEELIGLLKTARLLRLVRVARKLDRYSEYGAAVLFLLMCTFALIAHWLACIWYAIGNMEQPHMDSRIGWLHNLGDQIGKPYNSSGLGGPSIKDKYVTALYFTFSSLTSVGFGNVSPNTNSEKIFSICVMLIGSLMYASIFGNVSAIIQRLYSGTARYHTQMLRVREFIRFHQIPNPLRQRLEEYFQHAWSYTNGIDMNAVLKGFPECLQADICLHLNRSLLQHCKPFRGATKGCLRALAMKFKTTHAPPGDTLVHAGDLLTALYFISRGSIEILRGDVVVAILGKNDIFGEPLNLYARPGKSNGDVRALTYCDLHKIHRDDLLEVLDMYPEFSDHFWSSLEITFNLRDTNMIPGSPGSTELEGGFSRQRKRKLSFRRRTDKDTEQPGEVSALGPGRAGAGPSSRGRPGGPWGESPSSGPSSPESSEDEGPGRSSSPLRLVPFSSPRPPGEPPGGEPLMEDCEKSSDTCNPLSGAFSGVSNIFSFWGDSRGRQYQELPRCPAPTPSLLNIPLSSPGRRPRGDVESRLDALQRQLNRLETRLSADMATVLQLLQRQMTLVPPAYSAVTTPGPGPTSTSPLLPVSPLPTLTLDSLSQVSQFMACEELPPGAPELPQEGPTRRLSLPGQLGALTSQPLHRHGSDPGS
Description: The rapidly activating potassium channel encoded by the human ether a-go-go-related gene (hERG) is an important ion channel involved in the formation of phase 3 repolarisation of the myocardial action potential. Pharmacological blockade of hERG channels can lead to prolonged cardiac repolarisation with the electrocardiographic manifestation of a prolonged QT interval, known as long QT interval syndrome. Drug-induced delayed ventricular repolarisation can in some cases lead to a fatal arrhythmia, tip-twist ventricular tachycardia.

[3] = Pharmacokinetics in beagles; type: in vivo; conditions: both sexes, beagle, dog, plasma, po
Description: Absorption and elimination in the body may both gradually tend towards saturation. In addition, there was no statistically significant difference in plasma pharmacokinetic parameters between female and male beagles administered SY-5007 by gavage alone.

[4] = Pharmacokinetics in beagles; type: in vivo; conditions: both sexes, beagle, dog, plasma, iv, 1 mg/kg i.v.
CYP1A2 = target: T1, CYP1A2 (Homo sapiens, UniProt P05177); experiment: CYP inhibition in human liver microsomes; type: in vitro ADME; conditions: 0.5-25 μM
T1 construct: substrates of different CYP450 enzymes in mixed human liver microsomes; from tissue; host or cells: mixed human liver microsomes
T1 sequence (P05177 whole entry): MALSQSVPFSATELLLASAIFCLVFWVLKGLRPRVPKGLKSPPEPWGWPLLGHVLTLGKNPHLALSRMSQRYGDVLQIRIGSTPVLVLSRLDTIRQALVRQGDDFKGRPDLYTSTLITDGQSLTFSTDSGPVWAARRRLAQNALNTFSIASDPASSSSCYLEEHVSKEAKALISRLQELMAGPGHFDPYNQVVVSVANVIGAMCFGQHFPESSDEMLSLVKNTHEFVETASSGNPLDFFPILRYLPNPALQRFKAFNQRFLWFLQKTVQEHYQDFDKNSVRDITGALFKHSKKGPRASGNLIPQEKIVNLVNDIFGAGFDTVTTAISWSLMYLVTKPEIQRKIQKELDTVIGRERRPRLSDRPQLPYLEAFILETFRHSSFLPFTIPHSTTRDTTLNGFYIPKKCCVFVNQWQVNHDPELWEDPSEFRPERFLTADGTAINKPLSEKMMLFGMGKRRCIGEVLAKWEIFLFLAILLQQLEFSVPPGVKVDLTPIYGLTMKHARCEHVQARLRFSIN

CYP2C8 = target: T2, CYP2C8 (Homo sapiens, UniProt P10632); experiment: CYP inhibition in human liver microsomes; type: in vitro ADME; conditions: 0.5-25 μM
T2 construct: substrates of different CYP450 enzymes in mixed human liver microsomes; from tissue; host or cells: mixed human liver microsomes
T2 sequence (P10632 whole entry): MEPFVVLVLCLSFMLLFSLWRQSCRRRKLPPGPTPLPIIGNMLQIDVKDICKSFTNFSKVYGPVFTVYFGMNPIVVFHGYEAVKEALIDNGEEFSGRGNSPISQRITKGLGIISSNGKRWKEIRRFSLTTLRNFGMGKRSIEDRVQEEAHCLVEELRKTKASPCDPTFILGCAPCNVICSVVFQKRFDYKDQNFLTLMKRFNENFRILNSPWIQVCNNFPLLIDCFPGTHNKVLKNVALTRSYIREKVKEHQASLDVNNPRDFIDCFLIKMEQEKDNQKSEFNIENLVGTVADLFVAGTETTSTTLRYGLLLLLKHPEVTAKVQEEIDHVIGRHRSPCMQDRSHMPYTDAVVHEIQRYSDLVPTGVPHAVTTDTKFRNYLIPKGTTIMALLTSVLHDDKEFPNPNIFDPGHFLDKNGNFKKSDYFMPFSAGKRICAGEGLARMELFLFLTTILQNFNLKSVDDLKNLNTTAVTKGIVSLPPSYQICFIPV

[5] = system: RET signaling in BaF3-CCDC6-RET^V804M/M918T cells; experiment: RET signaling pathway phosphorylation in cells; type: cell-based
[6] = Tissue distribution in rats; type: in vivo; conditions: both sexes, rat, po, 20 mg/kg gavage
Description: The exposures in body fat, small intestine, heart, uterus, skeletal muscle, testis and brain were lower than in plasma and the rest were higher than in plasma. The highest exposures were found in the liver, stomach and lung, which were 358, 202 and 173% of plasma, respectively. […] There was no significant sex difference in the exposure of SY-5007 in rat tissues.

rat bone marrow cells = experiment: In vivo bone marrow micronucleus test
Procedure: The bone marrow cell micronucleus test was positive in male rats at ≥100 mg/kg/day and in female rats at ≥300 mg/kg/day.

[7] = Plasma protein binding, rapid equilibrium dialysis; type: in vitro ADME; conditions: monkey, read-out: Plasma protein binding rate (converted)
CYP2C9 = target: T3, CYP2C9 (Homo sapiens, UniProt P11712); experiment: CYP inhibition in human liver microsomes; type: in vitro ADME; conditions: 0.5-25 μM
T3 construct: substrates of different CYP450 enzymes in mixed human liver microsomes; from tissue; host or cells: mixed human liver microsomes
T3 sequence (P11712 whole entry): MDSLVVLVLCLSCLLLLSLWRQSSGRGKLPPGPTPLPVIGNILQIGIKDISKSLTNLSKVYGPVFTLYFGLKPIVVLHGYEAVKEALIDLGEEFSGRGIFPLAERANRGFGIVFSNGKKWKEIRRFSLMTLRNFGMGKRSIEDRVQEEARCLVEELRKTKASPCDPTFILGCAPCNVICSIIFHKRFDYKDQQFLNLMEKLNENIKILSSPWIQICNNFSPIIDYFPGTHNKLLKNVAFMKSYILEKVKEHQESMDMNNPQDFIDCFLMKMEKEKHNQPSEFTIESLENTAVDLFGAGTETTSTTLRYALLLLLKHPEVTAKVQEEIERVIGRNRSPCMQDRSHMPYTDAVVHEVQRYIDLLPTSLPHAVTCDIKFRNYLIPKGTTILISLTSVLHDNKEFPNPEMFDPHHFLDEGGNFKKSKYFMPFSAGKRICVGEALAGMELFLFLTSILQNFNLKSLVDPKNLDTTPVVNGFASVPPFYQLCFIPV

[8] = system: HEK293T-KIF5B-RET M918T cells; experiment: Proliferation assay (CellTiter-Glo); type: cell-based; conditions: Homo sapiens, read-out: Cellular Viability IC50
Procedure: (§1) The cell lines HEK293T, Baf3, TT cell and NIH-3T3 were obtained from the Cell Resource Center, Peking Union Medical College (PCRC). HEK293T and NIH-3T3 were maintained in DMEM high glucose medium (#C3113-0500, Vivacell) supplemented with 10 % FBS (#10500064, Gibco) and 1 % Penicillin-Streptomycin (#15140122, Gibco). The murine Pro‐B cell line Baf3 was cultured in RPMI 1640 medium (#C3010, Vivacell) supplemented with 10 % FBS, 1 % Penicillin-Streptomycin and 1 ng/mL recombinant murine interleukin-3 (#213-13, PeproTech). All stably transformed BaF3 cells were cultured in RPMI 1640 without IL‐3. The TT MTC cell was grown in Ham's F-12K medium (#21127022, Gibco) supplemented with 10 % FBS and 1 % Penicillin-Streptomycin. Cells were cultured at 37 °C under 5 % CO2 and high humidity conditions.
(§2) KIF5B-RET, CCDC6-RET and mutations were cloned into pCDHL vector and were verified by sequencing. Reah RET expression vectors were separately co‐transfected with psPAX2 and pMD2.G packaging plasmids into 60-70% confluent HEK 293T cells maintained in 2 mL of culture medium in six‐well plates using Polyethyleneimine (PEI) transfection grade. Virus containing media was harvested after 48 h and filtered with 0.45 μm membrane and stored at -80 °C prior to infection. For infection of Ba/F3 cells, 1 mL of viral supernatant and 8 μg/mL polybrene were added to 5 million cells per well in six‐well plates. Infected cells were selected with the addition of 1 μg/mL puromycin for 2 weeks in RPMI-1640/ 10% FBS/ 1 ng/mL IL-3 medium. Subsquently, puromycin-resistant cells were cultured in IL-3-free medium for 1 week and RET fusion proteins were confirmed by immunoblot analysis.
(§3) Cell viability was assessed by luminescence using CellTiter-Glo 2.0 assay (Promega). IC50 curve fitting was performed using GraphPad Prism 9.0.

[9] = system: HEK293T-KIF5B-RET V804M cells; experiment: Proliferation assay (CellTiter-Glo); type: cell-based; conditions: Homo sapiens, read-out: Cellular Viability IC50
Procedure: as §1, §2, §3

[10] = system: HEK293T-KIF5B-RET WT cells; experiment: Proliferation assay (CellTiter-Glo); type: cell-based; conditions: Homo sapiens, read-out: Cellular Viability IC50
Procedure: as §1, §2, §3

COc1ccc(CN2C3CC2CN(c2ccc(-c4cc(N5CC(C)(O)C5)cn5ncc(C#N)c45)cn2)C3)cn1 [SY-5007, 6-(3-hydroxy-3-methylazetidin-1-yl)-4-(6-(6-((6-methoxypyridin-3-yl)methyl)-3,6-diazabicyclo[3.1.1]heptan-3-yl)pyridin-3-yl)pyrazolo[1,5-a]pyridine-3-carbonitrile]
Chromosome aberration test result [1]: negative
Metabolic half-time ([2]; dog liver microsomes): 280 min
Metabolic half-time ([2]; human liver microsomes): 166 min
Metabolic half-time ([2]; monkey liver microsomes): 57.9 min
Metabolic half-time ([2]; mouse liver microsomes): 109 min
Metabolic half-time ([2]; rat liver microsomes): 384 min
CYP3A4 induction (CYP3A4): no induction
IC50 (hERG potassium channel): 3.3 µM
bioavailability ([3]; 2.5 mg/kg): 56.6%
bioavailability ([3]; 5 mg/kg): 74.1%
bioavailability ([3]; 10 mg/kg): 33.9%
AUC(0-inf) ([3]; gavage 2.5 mg/kg): 3760 ng·h/mL
Cmax ([3]; gavage 2.5 mg/kg): 758 ng/mL
AUC(0-inf) ([3]; gavage 5 mg/kg): 9850 ng·h/mL
Cmax ([3]; gavage 5 mg/kg): 1630 ng/mL
AUC(0-inf) ([3]; gavage 10 mg/kg): 9030 ng·h/mL
Cmax ([3]; gavage 10 mg/kg): 1440 ng/mL
Tmax ([3]; gavage 2.5, 5, 10 mg/kg): 0.5 to 2 h
half-life ([3]; gavage 2.5-10 mg/kg): 4.81 to 7.53 h
MRT inf ([3]; gavage 2.5-10 mg/kg, read-out: MRTINF_obs): 5.75 to 11.4 h
clearance [4]: 6.63 mL/min/kg
half-life [4]: 3.27 h
Vd ([4]; read-out: Vss): 1.43 L/kg
IC50 (CYP1A2): > 25 µM
IC50 (CYP2C8): 9.75 µM
Concentration of saturation [5]: 100 nM
Concentration with significant inhibitory effect on RET signaling [5]: 10 nM
Kp ([6]; brain, read-out: Brain exposure (AUC0~24h)): 0.00195
Kp ([6]; liver, read-out: Liver exposure (AUC0~24h)): 3.58
Kp ([6]; lung, read-out: Lung exposure (AUC0~24h)): 1.73
Kp ([6]; stomach, read-out: Stomach exposure (AUC0~24h)): 2.02
Dose at which micronucleus test positive (rat bone marrow cells; female rats): ≥ 300 mg/kg/day
Dose at which micronucleus test positive (rat bone marrow cells; male rats): ≥ 100 mg/kg/day
fraction unbound [7]: 0.023
IC50 (CYP2C9): 6.68 µM
IC50 [8]: 0.057 µM
IC50 [9]: 0.099 µM
IC50 [10]: 0.0544 µM
